# Assay results as given in publication PMC4038168 (Chemical communications (Cambridge, England), 2014).
# Entries after “also recorded” stand apart in the source; their conditions may differ.
# Tests used:
# rat FAAH (r-FAAH) = target: T1, rat FAAH (r-FAAH) (Rattus norvegicus, UniProt P97612); assay: rat FAAH inhibition; type: biochemical
# T1 sequence (P97612 1-579): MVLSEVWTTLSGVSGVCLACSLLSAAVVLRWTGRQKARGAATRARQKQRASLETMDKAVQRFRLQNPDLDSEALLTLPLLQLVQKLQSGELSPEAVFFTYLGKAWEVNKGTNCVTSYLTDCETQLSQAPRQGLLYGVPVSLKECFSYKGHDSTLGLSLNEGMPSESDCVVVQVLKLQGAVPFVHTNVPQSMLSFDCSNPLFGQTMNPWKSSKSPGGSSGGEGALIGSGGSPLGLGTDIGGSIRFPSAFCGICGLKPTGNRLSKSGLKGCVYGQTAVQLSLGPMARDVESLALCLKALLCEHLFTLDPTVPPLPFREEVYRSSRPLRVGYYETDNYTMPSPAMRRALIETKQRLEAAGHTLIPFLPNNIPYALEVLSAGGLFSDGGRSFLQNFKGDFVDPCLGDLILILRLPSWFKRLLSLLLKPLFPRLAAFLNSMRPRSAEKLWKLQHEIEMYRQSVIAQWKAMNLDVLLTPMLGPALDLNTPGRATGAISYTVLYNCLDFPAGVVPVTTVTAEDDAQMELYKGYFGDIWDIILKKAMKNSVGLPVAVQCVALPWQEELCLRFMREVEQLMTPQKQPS
# human FAAH (h-FAAH) = target: T2, human FAAH (h-FAAH) (Homo sapiens, UniProt O00519); assay: human FAAH inhibition; type: biochemical
# T2 sequence (O00519 1-579): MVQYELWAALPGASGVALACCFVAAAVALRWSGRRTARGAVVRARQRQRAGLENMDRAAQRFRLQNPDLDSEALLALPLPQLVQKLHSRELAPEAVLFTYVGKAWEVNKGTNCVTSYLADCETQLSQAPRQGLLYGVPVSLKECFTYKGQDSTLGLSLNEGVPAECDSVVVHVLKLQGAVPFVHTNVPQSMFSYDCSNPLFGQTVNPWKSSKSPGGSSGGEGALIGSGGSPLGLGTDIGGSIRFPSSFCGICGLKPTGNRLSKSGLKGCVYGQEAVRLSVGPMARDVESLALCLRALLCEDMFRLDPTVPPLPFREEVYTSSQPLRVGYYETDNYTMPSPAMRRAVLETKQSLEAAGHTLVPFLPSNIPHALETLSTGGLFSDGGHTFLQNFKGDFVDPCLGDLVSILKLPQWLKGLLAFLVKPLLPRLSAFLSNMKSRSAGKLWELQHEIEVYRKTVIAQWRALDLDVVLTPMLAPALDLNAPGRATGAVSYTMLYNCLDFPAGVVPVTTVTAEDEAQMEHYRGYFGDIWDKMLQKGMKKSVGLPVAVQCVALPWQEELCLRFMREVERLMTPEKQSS
# cannabinoid receptor CB1 [1] = target: T3, cannabinoid receptor CB1 (Homo sapiens, UniProt P21554); assay: CB1 functional assay; type: cell-based
# human DRD3 = human DRD3 (Homo sapiens, UniProt P35462); assay: human DRD3 functional assay; type: cell-based
# cannabinoid receptor CB1 [2] = target: T3, cannabinoid receptor CB1; settings: cited from earlier work
# T3 sequence (P21554 whole entry): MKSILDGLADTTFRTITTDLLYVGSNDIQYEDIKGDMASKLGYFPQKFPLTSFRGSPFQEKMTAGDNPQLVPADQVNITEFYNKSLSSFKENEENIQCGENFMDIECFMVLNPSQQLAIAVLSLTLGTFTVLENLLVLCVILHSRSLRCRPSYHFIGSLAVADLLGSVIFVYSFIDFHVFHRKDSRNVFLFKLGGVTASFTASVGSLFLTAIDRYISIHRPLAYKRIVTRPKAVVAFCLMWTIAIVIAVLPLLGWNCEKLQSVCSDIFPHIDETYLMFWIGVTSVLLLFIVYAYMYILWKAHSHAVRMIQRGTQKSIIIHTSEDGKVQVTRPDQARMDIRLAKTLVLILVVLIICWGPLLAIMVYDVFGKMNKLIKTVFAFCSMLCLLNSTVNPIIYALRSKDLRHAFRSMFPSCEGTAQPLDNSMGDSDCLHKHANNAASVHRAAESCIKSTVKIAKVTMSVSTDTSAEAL
# Sequence of human DRD3 (P35462 whole entry): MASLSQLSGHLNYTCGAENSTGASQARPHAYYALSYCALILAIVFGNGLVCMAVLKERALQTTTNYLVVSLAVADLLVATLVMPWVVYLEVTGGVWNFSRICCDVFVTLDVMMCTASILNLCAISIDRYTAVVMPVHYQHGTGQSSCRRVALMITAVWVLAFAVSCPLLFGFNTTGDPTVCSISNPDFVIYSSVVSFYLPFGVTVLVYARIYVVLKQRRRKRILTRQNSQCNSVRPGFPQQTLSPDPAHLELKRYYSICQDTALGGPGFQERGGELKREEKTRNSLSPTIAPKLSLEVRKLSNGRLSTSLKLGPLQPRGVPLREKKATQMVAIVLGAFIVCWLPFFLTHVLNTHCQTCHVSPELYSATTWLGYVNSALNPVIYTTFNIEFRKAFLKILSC
SMILES,inhibitory activity on r-FAAH (in words) (rat FAAH (r-FAAH)),inhibitory activity on h-FAAH (in words) (human FAAH (h-FAAH)),CB1 activity (in words) (cannabinoid receptor CB1 [1]),EC50 (cannabinoid receptor CB1 [1]; read-out: CB1 EC50) [nM],activity on DRD3 (in words) (human DRD3),effect on CB1 (in words) (cannabinoid receptor CB1 [2])
"O=C(NCCCCN1CCN(c2cccc(Cl)c2Cl)CC1)c1ccc(-c2ccccn2)cc1 [Compound 2, CJB090]",did not show any significant inhibitory activity,did not show any significant inhibitory activity,rather potent CB1 agonist,840,–,–
"COc1ccccc1N1CCN(CCCCNC(=O)c2ccc3ccccc3c2)CC1 [Compound 3, BP-897]",did not show any significant inhibitory activity,did not show any significant inhibitory activity,completely devoid of CB1 activity; also recorded: did not show any activity,–,–,–
"NC(=O)c1cccc(-c2cccc(OC(=O)NC3CCCCC3)c2)c1 [Compound 5, URB597]",–,–,–,–,no activity,no effect
